Experimental findings from patent publication US12194080B2, “Methods for identification, assessment, prevention, and treatment of metabolic disorders using PM20D1 and N-lipidated amino acids” (Dana-Farber Cancer Institute, Inc., priority 2015, dated 2025) are described below.

“Also recorded” adds a separate entry of the source.

The target of one assay is T1, mouse PM20D1 (Mus musculus, UniProt Q8C165).
T1 construct: Full-length mouse Pm20d1 cDNA (GE Dharmacon) was subcloned with an in-frame C-terminal 6× His and FLAG® tag; made in house; host or cells: 293A (HEK293A) cells stably infected with retrovirus
T1 sequence (Q8C165 25-503): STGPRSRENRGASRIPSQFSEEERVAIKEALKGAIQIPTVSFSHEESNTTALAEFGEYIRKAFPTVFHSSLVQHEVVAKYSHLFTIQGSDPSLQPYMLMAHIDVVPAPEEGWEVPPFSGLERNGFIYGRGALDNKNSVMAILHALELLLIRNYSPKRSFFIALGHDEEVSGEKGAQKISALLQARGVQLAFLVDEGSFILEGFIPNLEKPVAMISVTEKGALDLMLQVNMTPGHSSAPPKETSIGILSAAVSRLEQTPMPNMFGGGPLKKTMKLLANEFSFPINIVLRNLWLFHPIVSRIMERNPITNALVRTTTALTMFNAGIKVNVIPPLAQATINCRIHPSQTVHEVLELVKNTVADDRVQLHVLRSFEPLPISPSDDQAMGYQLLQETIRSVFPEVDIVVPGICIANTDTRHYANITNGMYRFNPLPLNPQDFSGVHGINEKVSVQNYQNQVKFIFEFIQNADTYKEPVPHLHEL
Put plainly: In vitro PM20D1-catalyzed N-acyl amino acid hydrolysis. It is filed as biochemical. Particulars: N-acyl amide substrate 100 μM.

In assay [1] the test system is Diet induced obese (DIO) mice. Put plainly: Chronic daily i.p. administration of N-acyl amino acids to DIO mice (body weight, food intake, body composition, GTT). Conditions: chronic treatment, C18:1-Phe 30 or 50 mg/kg/day, C20:4-Gly 15 mg/kg/day, i.p. It counts as in vivo, mouse. As for the experimental part: Animal experiments were performed according to procedures approved by the Beth Israel Deaconess Medical Center IACUC. Mice were maintained in 12 h light-dark cycles at 22° C. and fed a standard irradiated rodent chow diet. All experiments on wild-type mice were performed with male C57BL/6 mice purchased from Jackson Laboratories, except for the AAV experiments, which were performed with male C57BL/6 mice from Charles River. UCP1-KO (stock #017476) and 16-20 week DIO mice (stock #380050) were obtained from Jackson Laboratories. For AAV injection experiments, mice were gently warmed using a 250 W clear infrared heat lamp, immobilized, and injected via tail vein with 10^10 virus/mouse (diluted in saline) in a total volume of 100 μl/mouse. Where indicated, mice were placed on high-fat diet (60% fat, Research Diets). For cold exposure experiments, mice were group housed and placed at 4° C. for the indicated times. For the preparation of C18:1-Phe for in vivo injections, compounds were dissolved in 18:1:1 v/v/v saline:Kolliphor® EL (Sigma Aldrich):DMSO and sonicated until homogeneous. Mice were administered compounds at 5 μl/g body weight at the indicated doses. For all injection experiments, mice were mock injected with saline daily for 3 days prior to the start of the experiments. For glucose tolerance tests (GTTs), mice received their final dose of compound the day prior to the assay and were then fasted overnight. Glucose was administered at 1.5 g/kg.
Energy expenditure, O2 consumption, CO2 production, respiratory exchange ratio, total locomotor activity, and food intake measurements were made with a 16-cage Columbus Instruments Oxymax Comprehensive Lab Animal Monitoring System (CLAMS) at ambient room temperature (21-23° C.). Mice were acclimated for one day in metabolic cages prior to data collection. Whole-body composition was assessed with an EchoMRI™ 3-in-1 on conscious mice.

On to `CCCCCCCC/C=C\CCCCCCCC(=O)N[C@@H](Cc1ccccc1)C(=O)O` [C18:1-Phe, Oleoyl-L-phenylalanine], for which the “substrate of the PM20D1 hydrolysis reaction” value on mouse PM20D1 was “substrates; also recorded: liberated free oleate”. Besides, the food intake result in assay [1] is reported as “reduced food intake”.
